# Reference: ChEMBL document CHEMBL1201862, “PubChem BioAssay data set” (2004)
#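 96-well plates; 48 h exposure; 5 concentrations. Endpoints by linear interpolation between flanking doses. Not reached: highest tested concentration assigned. GI50: concentration for 50% inhibition of growth.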 Active and inactive are the calls of the source. No stated cut-off is given here; in the data, active = GI50 up to about 1.1 µM and inactive = higher.
# How the values were obtained:
# Assay in all cases: NCI tumour cell line growth inhibition, 48 h
# HT-29 = tested on: HT-29
# 786-0 = tested on: 786-0
# Malme-3M = tested on: Malme-3M
# LOX IMVI = tested on: LOX IMVI
# COLO 205 = tested on: COLO 205
# SF-539 = tested on: SF-539
# A549 = tested on: A549
# ACHN = tested on: ACHN
# NCI-H460 = tested on: NCI-H460
# A498 = tested on: A498
# SF-268 = tested on: SF-268
# UACC-62 = tested on: UACC-62
# EKVX = tested on: EKVX
# HCC 2998 = tested on: HCC 2998
# SNB-75 = tested on: SNB-75
# OVCAR-8 = tested on: OVCAR-8
# NCI-H522 = tested on: NCI-H522
# MDA-MB-231 = tested on: MDA-MB-231
# MCF7 = tested on: MCF7
SMILES,GI50 (HT-29),GI50 (786-0),GI50 (Malme-3M),GI50 (LOX IMVI),GI50 (COLO 205),GI50 (SF-539),GI50 (A549),GI50 (ACHN),GI50 (NCI-H460),GI50 (A498),GI50 (SF-268),GI50 (UACC-62),GI50 (EKVX),GI50 (HCC 2998),GI50 (SNB-75),GI50 (OVCAR-8),GI50 (NCI-H522),GI50 (MDA-MB-231),GI50 (MCF7)
C[C@@H](O)CCC(=O)c1ccoc1,> 100 µM (inactive),> 100 µM (inactive),> 100 µM (inactive),> 100 µM (inactive),> 100 µM (inactive),> 100 µM (inactive),> 100 µM (inactive),> 100 µM (inactive),> 100 µM (inactive),> 100 µM (inactive),> 100 µM (inactive),> 100 µM (inactive),> 100 µM (inactive),> 100 µM (inactive),> 49.2 µM (inactive),> 100 µM (inactive),> 100 µM (inactive),–,–
C(/Cc1ccc2c(c1)OCO2)=N\N=C1NCCCCN1,47.8 µM (inactive),> 100 µM (inactive),> 100 µM (inactive),55.5 µM (inactive),> 100 µM (inactive),> 100 µM (inactive),> 100 µM (inactive),> 100 µM (inactive),45.8 µM (inactive),24.8 µM (inactive),> 100 µM (inactive),> 100 µM (inactive),50 µM (inactive),28.2 µM (inactive),44.8 µM (inactive),> 100 µM (inactive),> 100 µM (inactive),76.2 µM (inactive),88.3 µM (inactive)
CC(C)(C)c1cc2c(OP(c3ccccc3)c3ccccc3)c(c1)Cc1cc(C(C)(C)C)cc(c1OP(c1ccccc1)c1ccccc1)Cc1cc(C(C)(C)C)cc(c1OP(c1ccccc1)c1ccccc1)Cc1cc(C(C)(C)C)cc(c1OP(c1ccccc1)c1ccccc1)C2,> 5 µM (inactive),> 5 µM (inactive),> 5 µM (inactive),> 5 µM (inactive),> 5 µM (inactive),> 5 µM (inactive),> 5 µM (inactive),> 5 µM (inactive),> 5 µM (inactive),> 5 µM (inactive),> 5 µM (inactive),> 5 µM (inactive),> 5 µM (inactive),> 5 µM (inactive),> 5 µM (inactive),> 5 µM (inactive),> 5 µM (inactive),–,–
Cc1ccc(S(=O)(=O)c2ccc([N+](=O)[O-])o2)cc1,1.7 µM (inactive),1.67 µM (inactive),1.08 µM (active),1.14 µM (inactive),0.916 µM (active),1.91 µM (inactive),8.81 µM (inactive),1.59 µM (inactive),14.1 µM (inactive),17 µM (inactive),11.1 µM (inactive),2.32 µM (inactive),3.24 µM (inactive),4.83 µM (inactive),5.25 µM (inactive),0.906 µM (active),0.185 µM (active),2.21 µM (inactive),2.55 µM (inactive)
COC(=O)C1CC2(C)C=CC1N(C(=O)OCc1ccccc1)C2 (stereo not drawn),46.2 µM (inactive),> 100 µM (inactive),> 100 µM (inactive),> 100 µM (inactive),> 100 µM (inactive),> 100 µM (inactive),88.5 µM (inactive),> 100 µM (inactive),> 100 µM (inactive),> 100 µM (inactive),> 100 µM (inactive),51.5 µM (inactive),38.2 µM (inactive),> 100 µM (inactive),28.5 µM (inactive),> 100 µM (inactive),30.6 µM (inactive),> 100 µM (inactive),52.7 µM (inactive)
CC(=O)Nc1ccc(-c2nc3ccccc3s2)cc1,73.1 µM (inactive),24 µM (inactive),–,36.9 µM (inactive),58.9 µM (inactive),26.2 µM (inactive),–,32.4 µM (inactive),36.1 µM (inactive),13.4 µM (inactive),51.3 µM (inactive),66.7 µM (inactive),85.1 µM (inactive),73.8 µM (inactive),30.8 µM (inactive),35.4 µM (inactive),–,26.8 µM (inactive),67.5 µM (inactive)
Nc1nc(NCC2(CO)CC2)cc(=O)[nH]1,> 100 µM (inactive),> 100 µM (inactive),> 100 µM (inactive),> 100 µM (inactive),> 100 µM (inactive),–,> 100 µM (inactive),> 100 µM (inactive),> 100 µM (inactive),> 100 µM (inactive),> 100 µM (inactive),> 100 µM (inactive),> 100 µM (inactive),> 100 µM (inactive),> 100 µM (inactive),> 100 µM (inactive),> 100 µM (inactive),> 100 µM (inactive),> 100 µM (inactive)
COC(=O)n1c(C[P+](c2ccccc2)(c2ccccc2)c2ccccc2)cc2ccccc21,1.75 µM (inactive),2.41 µM (inactive),3.47 µM (inactive),1.07 µM (active),1.26 µM (inactive),3.17 µM (inactive),2.22 µM (inactive),3.87 µM (inactive),1.43 µM (inactive),7.26 µM (inactive),2.93 µM (inactive),2.77 µM (inactive),0.774 µM (active),1.15 µM (inactive),3.94 µM (inactive),0.566 µM (active),1 µM (active),–,–
COc1cccc2c1C(=O)c1c(O)c3c(c(O)c1C2=O)C[C@@](O)(/C(C)=N/NC(=O)c1ccc(Cl)c(Cl)c1)C[C@@H]3OC1CC(N)C(O)C(C)O1 (stereo partly drawn),0.071 µM (active),0.191 µM (active),0.0237 µM (active),0.0249 µM (active),0.176 µM (active),0.183 µM (active),0.186 µM (active),0.0364 µM (active),0.067 µM (active),1.22 µM (inactive),0.296 µM (active),0.11 µM (active),0.904 µM (active),0.146 µM (active),0.0448 µM (active),0.292 µM (active),0.223 µM (active),0.711 µM (active),0.0693 µM (active)
COc1ccc(C)cc1-c1cc(Sc2ccccc2)c(-c2cc(C)ccc2OC)o1,> 31.6 µM (inactive),> 31.6 µM (inactive),> 31.6 µM (inactive),> 100 µM (inactive),> 31.6 µM (inactive),> 31.6 µM (inactive),> 31.6 µM (inactive),> 31.6 µM (inactive),> 31.6 µM (inactive),> 31.6 µM (inactive),> 31.6 µM (inactive),> 31.6 µM (inactive),> 31.6 µM (inactive),> 31.6 µM (inactive),> 31.6 µM (inactive),> 31.6 µM (inactive),> 31.6 µM (inactive),–,–
CCn1ncc2c1nc(-c1ccccc1)c[n+]2[O-],> 100 µM (inactive),> 100 µM (inactive),–,7.01 µM (inactive),> 100 µM (inactive),> 100 µM (inactive),> 100 µM (inactive),> 100 µM (inactive),> 100 µM (inactive),–,> 100 µM (inactive),6.15 µM (inactive),> 100 µM (inactive),–,36.9 µM (inactive),75 µM (inactive),90.4 µM (inactive),–,46 µM (inactive)
